How the values were obtained:
Experiment in all cases: Kinase inhibitor library screening, PrestoBlue cell viability, 1 or 10 μM, 72 h
[1] = test system: IGR37-GP cells (Dabrafenib-resistant)
[2] = test system: A375-GP cells (Dabrafenib-resistant)
[3] = test system: 501Mel-GP cells (Dabrafenib-resistant); details: 72 h
IGR37 cells (parental) = test system: IGR37 cells (parental)
501Mel cells (parental) = details: 72 h
In short: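 Kinase inhibitors added at two fixed concentrations; 72 h exposure; PrestoBlue readout; % viability vs untreated; n ≥ 2 per line.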

[4] = test system: IGR37-XP cells (Vemurafenib-resistant)
[5] = test system: A375-XP cells (Vemurafenib-resistant)
A375 cells (parental) = test system: A375 cells (parental)
[6] = test system: 501Mel-XP cells (Vemurafenib-resistant); details: 72 h
[7] = IGR37 Parental, 1μΜ, 72 h, in %
[8] = IGR37 Parental, 10μΜ, 72 h, in %

`CN(C)Cc1cccc(N/C(=C2\C(=O)Nc3cc(C(N)=O)ccc32)c2ccccc2)c1` [BIX 02188] was tested. Which viability at 1 µM ([1]; Homo sapiens, IGR-37, 72 h, read-out: cell viability, IGR37 GP, 1μΜ) did it give?
The viability at 1 µM was 91%.

And the viability at 10 µM ([1]; Homo sapiens, IGR-37, 72 h, read-out: cell viability, IGR37 GP, 10μΜ)?
Its viability at 10 µM is 93.3%.

What about the viability at 1 µM ([2]; Homo sapiens, A-375, 72 h, read-out: cell viability, A375 GP, 1μΜ) of the same molecule?
Its viability at 1 µM is 103%.

What about the viability at 10 µM ([2]; Homo sapiens, A-375, 72 h, read-out: cell viability, A375 GP, 10μΜ) of the same molecule?
Its viability at 10 µM is 85.4%.

What about the viability at 1 µM ([3]; Homo sapiens, read-out: cell viability, 501Mel GP, 1μΜ) of the same molecule?
Its viability at 1 µM is 104%.

And the viability at 10 µM ([3]; Homo sapiens, read-out: cell viability, 501Mel GP, 10μΜ)?
Its viability at 10 µM is 96.3%.

And the viability at 1 µM (IGR37 cells (parental); Homo sapiens, IGR-37, 72 h, read-out: cell viability, IGR37 Parental, 1μΜ)?
The viability at 1 µM was 99.2%.

And the viability at 10 µM (IGR37 cells (parental); Homo sapiens, IGR-37, 72 h, read-out: cell viability, IGR37 Parental, 10μΜ)?
The viability at 10 µM was 109%.

And the viability at 1 µM (501Mel cells (parental); Homo sapiens, read-out: cell viability, 501Mel Parental, 1μΜ)?
The viability at 1 µM was 95.5%.

And the viability at 10 µM (501Mel cells (parental); Homo sapiens, read-out: cell viability, 501Mel Parental, 10μΜ)?
The viability at 10 µM was 91.7%.

What about the viability at 1 µM ([4]; Homo sapiens, IGR-37, 72 h, read-out: cell viability, IGR37 XP, 1μΜ) of the same molecule?
The viability at 1 µM was 107%.

What about the viability at 10 µM ([4]; Homo sapiens, IGR-37, 72 h, read-out: cell viability, IGR37 XP, 10μΜ) of the same molecule?
Its viability at 10 µM is 71.5%.

And the viability at 1 µM ([5]; Homo sapiens, A-375, 72 h, read-out: cell viability, A375 XP, 1μΜ)?
The viability at 1 µM was 103%.

And the viability at 10 µM ([5]; Homo sapiens, A-375, 72 h, read-out: cell viability, A375 XP, 10μΜ)?
The viability at 10 µM was 98.5%.

And the viability at 1 µM (A375 cells (parental); Homo sapiens, A-375, 72 h, read-out: cell viability, A375 Parental, 1μΜ)?
The viability at 1 µM was 103%.

What about the viability at 10 µM (A375 cells (parental); Homo sapiens, A-375, 72 h, read-out: cell viability, A375 Parental, 10μΜ) of the same molecule?
The viability at 10 µM was 95.5%.

And the viability at 1 µM ([6]; Homo sapiens, read-out: cell viability, 501Mel XP, 1μΜ)?
The viability at 1 µM was 96.7%.

What about the viability at 10 µM ([6]; Homo sapiens, read-out: cell viability, 501Mel XP, 10μΜ) of the same molecule?
Its viability at 10 µM is 86.6%.

What does the source list for `O=C1NC(=O)/C(=C\c2ccc3nccnc3c2)S1` [AS-605240]?
Cell viability in kinase inhibitor library screening, IGR37 GP, 10μΜ ([1]; IGR37 GP, 10μΜ, 72 h): 70.4%; Cell viability in kinase inhibitor library screening, IGR37 GP, 1μΜ ([1]; IGR37 GP, 1μΜ, 72 h, in %): 91.2; Cell viability in kinase inhibitor library screening, A375 GP, 1μΜ ([2]; A375 GP, 1μΜ, 72 h): 97.7; Cell viability in kinase inhibitor library screening, A375 GP, 10μΜ ([2]; A375 GP, 10μΜ, 72 h): 71.1; Cell viability in kinase inhibitor library screening, 501Mel GP, 1μΜ ([3]; 501Mel GP, 1μΜ, in %): 107.4; Cell viability in kinase inhibitor library screening, 501Mel GP, 10μΜ ([3]; 501Mel GP, 10μΜ, in %): 73.8; Cell viability in kinase inhibitor library screening, IGR37 Parental, 1μΜ (IGR37 cells (parental); [7]): 99.2; Cell viability in kinase inhibitor library screening, IGR37 Parental, 10μΜ (IGR37 cells (parental); [8]): 94.0; Cell viability in kinase inhibitor library screening, 501Mel Parental, 1μΜ (501Mel cells (parental); 501Mel Parental, 1μΜ, in %): 104.7; Cell viability in kinase inhibitor library screening, 501Mel Parental, 10μΜ (501Mel cells (parental); 501Mel Parental, 10μΜ, in %): 92.3; Cell viability in kinase inhibitor library screening, IGR37 XP, 1μΜ ([4]; IGR37 XP, 1μΜ, 72 h, in %): 98.2; Cell viability in kinase inhibitor library screening, A375 XP, 10μΜ ([5]; A375 XP, 10μΜ, 72 h): 81.1; Cell viability in kinase inhibitor library screening, A375 Parental, 10μΜ (A375 cells (parental); A375 Parental, 10μΜ, 72 h): 76.5; Cell viability in kinase inhibitor library screening, A375 Parental, 1μΜ (A375 cells (parental); A375 Parental, 1μΜ, 72 h): 99.1; Cell viability in kinase inhibitor library screening, 501Mel XP, 1μΜ ([6]; 501Mel XP, 1μΜ, in %): 98.5; Cell viability in kinase inhibitor library screening, 501Mel XP, 10μΜ ([6]; 501Mel XP, 10μΜ, in %): 72.2

For `COc1cc2ncnc(Nc3ccc(O)c(Br)c3)c2cc1OC` [WHI-P154], which cell viability, IGR37 GP, 10μΜ ([1]; IGR37 GP, 10μΜ, 72 h) is on record?
Its cell viability, IGR37 GP, 10μΜ is 72.3%.

What about the “cell viability, IGR37 GP, 1μΜ” value ([1]; IGR37 GP, 1μΜ, 72 h, in %) of the same molecule?
Its value is 94.4.

And the “cell viability, A375 GP, 1μΜ” value ([2]; A375 GP, 1μΜ, 72 h, in %)?
The value was 96.6.

What about the “cell viability, A375 GP, 10μΜ” value ([2]; A375 GP, 10μΜ, 72 h, in %) of the same molecule?
The value was 85.7.

What about the “cell viability, 501Mel GP, 1μΜ” value ([3]; 501Mel GP, 1μΜ, in %) of the same molecule?
Its value is 99.5.

What about the “cell viability, 501Mel GP, 10μΜ” value ([3]; 501Mel GP, 10μΜ, in %) of the same molecule?
The value was 77.2.

What about the “cell viability, IGR37 Parental, 1μΜ” value (IGR37 cells (parental); [7]) of the same molecule?
Its value is 97.1.

What about the “cell viability, IGR37 Parental, 10μΜ” value (IGR37 cells (parental); [8]) of the same molecule?
The value was 93.0.

What about the “cell viability, 501Mel Parental, 1μΜ” value (501Mel cells (parental); 501Mel Parental, 1μΜ, in %) of the same molecule?
Its value is 97.4.

And the “cell viability, 501Mel Parental, 10μΜ” value (501Mel cells (parental); 501Mel Parental, 10μΜ, in %)?
Its value is 93.8.

What about the cell viability, IGR37 XP, 10μΜ ([4]; IGR37 XP, 10μΜ, 72 h) of the same molecule?
The cell viability, IGR37 XP, 10μΜ was 36.2%.

And the “cell viability, IGR37 XP, 1μΜ” value ([4]; IGR37 XP, 1μΜ, 72 h, in %)?
Its value is 91.6.

And the “cell viability, A375 XP, 1μΜ” value ([5]; A375 XP, 1μΜ, 72 h, in %)?
The value was 105.6.

And the “cell viability, A375 XP, 10μΜ” value ([5]; A375 XP, 10μΜ, 72 h, in %)?
Its value is 90.7.

And the “cell viability, A375 Parental, 1μΜ” value (A375 cells (parental); A375 Parental, 1μΜ, 72 h, in %)?
Its value is 98.9.

What about the “cell viability, A375 Parental, 10μΜ” value (A375 cells (parental); A375 Parental, 10μΜ, 72 h, in %) of the same molecule?
Its value is 86.7.

And the “cell viability, 501Mel XP, 1μΜ” value ([6]; 501Mel XP, 1μΜ, in %)?
The value was 89.8.

And the “cell viability, 501Mel XP, 10μΜ” value ([6]; 501Mel XP, 10μΜ, in %)?
The value was 63.6.

For `CC(C)NC[C@@H](C(=O)N1CCN(c2ncnc3c2[C@H](C)C[C@H]3O)CC1)c1ccc(Cl)cc1` [GDC-0068], which “cell viability (kinase inhibitor library screening)” value ([1]; IGR37 GP, 1μΜ, 72 h) is on record?
The value was 97.0%.

What about the “cell viability (kinase inhibitor library screening)” value ([1]; IGR37 GP, 10μΜ, 72 h) of the same molecule?
Its value is 79.0%.

What about the “cell viability (kinase inhibitor library screening)” value ([2]; A375 GP, 10μΜ, 72 h) of the same molecule?
The value was 79.9%.

What about the “cell viability (kinase inhibitor library screening)” value ([3]; 501Mel GP, 1μΜ) of the same molecule?
Its value is 92.7%.

What about the “cell viability (kinase inhibitor library screening)” value ([3]; 501Mel GP, 10μΜ) of the same molecule?
Its value is 56.7%.

What about the “cell viability (kinase inhibitor library screening)” value (IGR37 cells (parental); IGR37 Parental, 1μΜ, 72 h) of the same molecule?
The value was 102.7%.

And the “cell viability (kinase inhibitor library screening)” value (IGR37 cells (parental); IGR37 Parental, 10μΜ, 72 h)?
The value was 90.8%.

And the “cell viability (kinase inhibitor library screening)” value (501Mel cells (parental); 501Mel Parental, 1μΜ)?
The value was 103.4%.

And the “cell viability (kinase inhibitor library screening)” value (501Mel cells (parental); 501Mel Parental, 10μΜ)?
The value was 81.6%.

What about the “cell viability (kinase inhibitor library screening)” value ([4]; IGR37 XP, 1μΜ, 72 h) of the same molecule?
The value was 95.3%.

What about the “cell viability (kinase inhibitor library screening)” value ([4]; IGR37 XP, 10μΜ, 72 h) of the same molecule?
Its value is 23.8%.

And the “cell viability (kinase inhibitor library screening)” value ([5]; A375 XP, 10μΜ, 72 h)?
The value was 85.5%.

What about the “cell viability (kinase inhibitor library screening)” value (A375 cells (parental); A375 Parental, 10μΜ, 72 h) of the same molecule?
Its value is 77.7%.

What about the “cell viability (kinase inhibitor library screening)” value (A375 cells (parental); A375 Parental, 1μΜ, 72 h) of the same molecule?
Its value is 104.3%.

And the “cell viability (kinase inhibitor library screening)” value ([6]; 501Mel XP, 1μΜ)?
Its value is 85.0%.

What about the “cell viability (kinase inhibitor library screening)” value ([6]; 501Mel XP, 10μΜ) of the same molecule?
Its value is 36.9%.

Source: article PMC6364417, “Kinase inhibitor library screening identifies synergistic drug combinations effective in sensitive and resistant melanoma cells” (Journal of Experimental & Clinical Cancer Research : CR, 2019)
